The source of these data is ChEMBL document CHEMBL5291721, “A preclinical secondary pharmacology resource illuminates target-adverse drug reaction associations of marketed drugs” (Nat Commun, 2023).

Among the targets are Adenosine receptor A2a (Homo sapiens, UniProt P29274); Cannabinoid receptor 1 (Homo sapiens, UniProt P21554); Mu-type opioid receptor (Homo sapiens, UniProt P35372).
The target of experiment [1] is T1, Alpha-2A adrenergic receptor (Homo sapiens, UniProt P08913).
T1 sequence (P08913 whole entry): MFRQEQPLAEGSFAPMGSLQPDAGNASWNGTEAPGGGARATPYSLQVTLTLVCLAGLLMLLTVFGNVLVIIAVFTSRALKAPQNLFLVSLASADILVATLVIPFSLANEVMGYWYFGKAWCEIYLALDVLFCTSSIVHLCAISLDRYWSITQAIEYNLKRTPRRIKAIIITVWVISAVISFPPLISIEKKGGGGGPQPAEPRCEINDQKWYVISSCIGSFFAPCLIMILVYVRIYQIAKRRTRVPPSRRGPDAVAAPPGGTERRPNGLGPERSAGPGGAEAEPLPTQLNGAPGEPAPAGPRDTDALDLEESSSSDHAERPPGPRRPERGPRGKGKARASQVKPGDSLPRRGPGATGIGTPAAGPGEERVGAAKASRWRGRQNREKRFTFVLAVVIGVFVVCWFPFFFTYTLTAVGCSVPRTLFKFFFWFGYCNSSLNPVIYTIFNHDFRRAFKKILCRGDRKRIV
The class given is functional, cell-based.

The target in experiment [2] is T2, Gastrin/cholecystokinin type B receptor (Homo sapiens, UniProt P32239).
T2 sequence (P32239 whole entry): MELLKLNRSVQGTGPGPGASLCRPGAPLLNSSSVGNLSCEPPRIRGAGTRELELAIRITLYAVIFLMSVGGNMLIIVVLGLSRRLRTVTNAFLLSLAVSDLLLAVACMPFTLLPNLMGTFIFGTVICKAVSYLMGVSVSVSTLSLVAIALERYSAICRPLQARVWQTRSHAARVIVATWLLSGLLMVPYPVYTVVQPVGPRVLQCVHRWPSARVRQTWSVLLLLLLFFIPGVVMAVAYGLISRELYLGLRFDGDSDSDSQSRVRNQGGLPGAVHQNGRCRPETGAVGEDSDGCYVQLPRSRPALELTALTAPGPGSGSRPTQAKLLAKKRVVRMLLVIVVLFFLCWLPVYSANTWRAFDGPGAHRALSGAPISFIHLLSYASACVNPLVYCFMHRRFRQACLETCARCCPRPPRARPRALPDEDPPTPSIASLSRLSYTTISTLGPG

Experiment [3] concerns the target Gamma-aminobutyric acid receptor subunit alpha-1 (Rattus norvegicus, UniProt P62813).
In experiment [4] the target is Glutamate receptor ionotropic, NMDA 1 (Rattus norvegicus, UniProt P35439).
The next experiment has as its target Histamine H2 receptor (Homo sapiens, UniProt P25021). Format: functional, cell-based.
The target of experiment [5] is Kappa-type opioid receptor (Homo sapiens, UniProt P41145).
Kappa-type opioid receptor, sequence (P41145 whole entry): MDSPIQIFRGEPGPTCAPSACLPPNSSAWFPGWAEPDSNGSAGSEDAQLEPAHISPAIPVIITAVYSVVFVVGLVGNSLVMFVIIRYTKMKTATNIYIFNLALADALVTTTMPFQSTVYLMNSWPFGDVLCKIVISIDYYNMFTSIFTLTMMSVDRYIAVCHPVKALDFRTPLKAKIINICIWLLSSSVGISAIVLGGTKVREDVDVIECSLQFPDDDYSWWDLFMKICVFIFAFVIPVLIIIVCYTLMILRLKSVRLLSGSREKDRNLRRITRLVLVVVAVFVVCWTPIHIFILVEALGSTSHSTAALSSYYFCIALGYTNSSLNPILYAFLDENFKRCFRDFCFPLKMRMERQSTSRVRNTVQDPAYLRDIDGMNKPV
The target in the next experiment is T3, Thromboxane A2 receptor (Homo sapiens, UniProt P21731).
T3 sequence (P21731 whole entry): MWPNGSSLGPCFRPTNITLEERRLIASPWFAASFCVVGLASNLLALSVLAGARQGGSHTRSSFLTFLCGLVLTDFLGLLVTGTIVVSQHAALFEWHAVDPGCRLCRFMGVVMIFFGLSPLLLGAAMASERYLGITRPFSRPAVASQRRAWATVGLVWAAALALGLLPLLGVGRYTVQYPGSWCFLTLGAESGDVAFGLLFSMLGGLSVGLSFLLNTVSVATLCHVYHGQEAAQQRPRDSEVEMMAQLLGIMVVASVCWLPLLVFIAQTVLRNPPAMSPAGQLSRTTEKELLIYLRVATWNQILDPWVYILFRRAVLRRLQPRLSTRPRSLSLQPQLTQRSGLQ

Experiment [6] concerns the target T4, Alpha-1A adrenergic receptor (Homo sapiens, UniProt P35348).
T4 sequence (P35348 whole entry): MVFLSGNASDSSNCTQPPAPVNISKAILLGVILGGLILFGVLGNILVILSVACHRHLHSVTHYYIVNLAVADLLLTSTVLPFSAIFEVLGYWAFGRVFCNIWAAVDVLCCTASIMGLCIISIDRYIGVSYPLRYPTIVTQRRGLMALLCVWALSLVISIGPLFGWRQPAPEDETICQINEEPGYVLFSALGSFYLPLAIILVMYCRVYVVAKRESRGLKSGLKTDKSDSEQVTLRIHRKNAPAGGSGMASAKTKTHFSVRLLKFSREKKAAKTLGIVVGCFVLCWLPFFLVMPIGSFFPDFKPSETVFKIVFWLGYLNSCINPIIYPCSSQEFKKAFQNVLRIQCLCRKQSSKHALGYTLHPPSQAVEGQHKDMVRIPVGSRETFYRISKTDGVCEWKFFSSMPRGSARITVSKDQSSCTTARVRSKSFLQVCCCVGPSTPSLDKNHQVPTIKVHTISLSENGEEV
The class given is functional, cell-based.

Values joined by “and” are separate entries in the source; they are usually repeats but may differ in a detail not shown here. Identical values can stand only once. Some results are limits rather than exact numbers.
Note: assay procedure not described here.

Cannabinoid receptor 1, sequence (P21554 whole entry): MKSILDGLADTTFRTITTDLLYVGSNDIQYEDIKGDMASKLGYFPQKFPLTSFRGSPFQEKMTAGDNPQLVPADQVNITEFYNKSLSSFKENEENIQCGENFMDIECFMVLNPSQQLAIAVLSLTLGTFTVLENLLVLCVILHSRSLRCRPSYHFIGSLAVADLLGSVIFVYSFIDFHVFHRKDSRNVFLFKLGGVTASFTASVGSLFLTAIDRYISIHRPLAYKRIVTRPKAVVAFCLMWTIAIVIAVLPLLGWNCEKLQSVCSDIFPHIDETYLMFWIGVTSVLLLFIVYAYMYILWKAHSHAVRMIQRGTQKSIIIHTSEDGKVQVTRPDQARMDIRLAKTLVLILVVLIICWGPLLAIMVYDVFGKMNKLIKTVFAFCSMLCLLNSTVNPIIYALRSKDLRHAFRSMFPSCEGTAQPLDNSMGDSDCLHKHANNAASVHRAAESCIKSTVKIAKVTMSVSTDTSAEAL
Mu-type opioid receptor, sequence (P35372 whole entry): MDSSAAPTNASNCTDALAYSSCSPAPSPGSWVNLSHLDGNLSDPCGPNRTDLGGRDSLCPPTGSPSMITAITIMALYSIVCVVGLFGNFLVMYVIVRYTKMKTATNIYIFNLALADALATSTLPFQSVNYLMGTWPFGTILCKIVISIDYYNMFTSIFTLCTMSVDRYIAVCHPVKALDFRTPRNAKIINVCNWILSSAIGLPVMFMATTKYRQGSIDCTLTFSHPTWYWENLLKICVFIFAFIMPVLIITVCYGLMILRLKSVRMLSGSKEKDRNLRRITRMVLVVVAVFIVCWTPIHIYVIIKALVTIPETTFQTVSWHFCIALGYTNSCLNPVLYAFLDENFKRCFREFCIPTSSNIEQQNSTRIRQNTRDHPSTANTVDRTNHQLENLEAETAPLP
Histamine H2 receptor, sequence (P25021 whole entry): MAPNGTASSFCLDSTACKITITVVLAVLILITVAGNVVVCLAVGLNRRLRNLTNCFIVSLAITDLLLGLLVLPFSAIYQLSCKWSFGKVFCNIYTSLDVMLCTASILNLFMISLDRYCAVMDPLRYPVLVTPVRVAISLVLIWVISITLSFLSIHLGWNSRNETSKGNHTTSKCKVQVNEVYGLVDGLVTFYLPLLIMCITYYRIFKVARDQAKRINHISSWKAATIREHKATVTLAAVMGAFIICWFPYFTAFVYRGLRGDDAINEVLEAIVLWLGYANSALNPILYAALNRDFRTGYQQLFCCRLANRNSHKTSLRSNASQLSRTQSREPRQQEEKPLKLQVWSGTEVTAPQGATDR
Gamma-aminobutyric acid receptor subunit alpha-1, sequence (P62813 whole entry): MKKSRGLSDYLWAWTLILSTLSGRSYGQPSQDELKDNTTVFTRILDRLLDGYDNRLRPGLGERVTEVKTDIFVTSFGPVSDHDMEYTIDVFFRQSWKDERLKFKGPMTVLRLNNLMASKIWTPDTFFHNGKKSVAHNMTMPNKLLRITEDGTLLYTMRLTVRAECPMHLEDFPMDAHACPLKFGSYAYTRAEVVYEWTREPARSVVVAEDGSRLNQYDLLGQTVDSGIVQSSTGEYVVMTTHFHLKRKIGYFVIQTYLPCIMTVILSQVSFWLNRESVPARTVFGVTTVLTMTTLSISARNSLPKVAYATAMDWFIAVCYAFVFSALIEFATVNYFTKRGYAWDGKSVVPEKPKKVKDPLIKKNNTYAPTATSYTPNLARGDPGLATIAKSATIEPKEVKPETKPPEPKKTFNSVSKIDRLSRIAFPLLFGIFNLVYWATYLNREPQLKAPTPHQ
Adenosine receptor A2a, sequence (P29274 whole entry): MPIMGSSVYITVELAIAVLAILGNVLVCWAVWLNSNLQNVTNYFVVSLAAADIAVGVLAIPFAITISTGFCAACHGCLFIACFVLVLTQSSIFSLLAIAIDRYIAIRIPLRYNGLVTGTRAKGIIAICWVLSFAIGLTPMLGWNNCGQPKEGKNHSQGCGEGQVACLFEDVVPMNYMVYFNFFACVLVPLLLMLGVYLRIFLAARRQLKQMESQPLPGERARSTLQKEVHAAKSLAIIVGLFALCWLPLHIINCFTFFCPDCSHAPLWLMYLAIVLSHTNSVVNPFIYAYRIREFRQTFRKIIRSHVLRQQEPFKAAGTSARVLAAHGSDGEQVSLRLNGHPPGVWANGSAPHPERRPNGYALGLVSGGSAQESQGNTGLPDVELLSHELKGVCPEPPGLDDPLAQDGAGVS

One may read the AC50 as the concentration giving half of the maximal activity seen. A lower AC50 goes with greater potency. As for `COc1ccccc1Oc1c(NS(=O)(=O)c2ccc(C(C)(C)C)cc2)nc(-c2ncccn2)nc1OCCO` [BOSENTAN], the AC50 is above 30 µM on Adenosine receptor A2a; above 10 µM in [1]; above 30 µM in [2]; above 10 µM on Cannabinoid receptor 1; above 10 µM in [3]; above 10 µM in experiment [4]. In addition, the AC50 is above 10 µM at Histamine H2 receptor, above 10 µM in [5], above 30 µM at Thromboxane A2 receptor and above 30 µM on Mu-type opioid receptor.

Turning to `CC(C(=O)O)c1ccc2c(c1)[nH]c1ccc(Cl)cc12` (stereo not given) [CARPROFEN], the AC50 at Adenosine receptor A2a was above 30 µM; in [1], above 10 µM; in experiment [2], above 30 µM; at Cannabinoid receptor 1, above 10 µM; in experiment [3], above 10 µM; in experiment [4], above 10 µM. Moreover, the AC50 on Histamine H2 receptor was above 10 µM; in [5], above 10 µM; on Thromboxane A2 receptor, above 30 µM; on Mu-type opioid receptor it was above 30 µM.

For `COc1ccccc1OCCNCC(O)COc1cccc2[nH]c3ccccc3c12` (stereo not given) [CARVEDILOL], the AC50 at Adenosine receptor A2a is above 30 µM; in experiment [1], above 30 µM; in experiment [2], above 30 µM; at Cannabinoid receptor 1 it was above 10 µM; in experiment [3], above 10 µM; in experiment [4], 5.09 µM. Besides, the AC50 on Histamine H2 receptor was above 10 µM; in [5], 18.9 µM; on Thromboxane A2 receptor it was above 30 µM; on Mu-type opioid receptor it was 1.7 µM.

As to `O=C1CCc2cc(OCCCCc3nnnn3C3CCCCC3)ccc2N1` [CILOSTAZOL], the AC50 at Adenosine receptor A2a is above 30 µM; in [1], above 30 µM; in experiment [2] it was above 30 µM; at Cannabinoid receptor 1, above 10 µM; in [3], above 30 µM; in experiment [4], above 30 µM. The AC50 at Histamine H2 receptor was above 30 µM; in experiment [5], 3.06 µM; at Thromboxane A2 receptor it was above 30 µM; at Mu-type opioid receptor, above 30 µM.

Consider `CC(C)N(CCC(C(N)=O)(c1ccccc1)c1ccccn1)C(C)C` (stereo not given) [DISOPYRAMIDE], for which the AC50 is above 30 µM at Adenosine receptor A2a; above 10 µM in [1]; above 30 µM in experiment [2]; above 10 µM on Cannabinoid receptor 1; above 10 µM in [3]; above 10 µM in [4]. The AC50 on Histamine H2 receptor is above 10 µM; in experiment [5], 6.73 µM; on Thromboxane A2 receptor, above 30 µM; on Mu-type opioid receptor, above 30 µM.

`C[C@H]1c2cccc(O)c2C(=O)C2=C(O)[C@]3(O)C(=O)C(C(N)=O)=C(O)[C@@H](N(C)C)[C@@H]3[C@@H](O)[C@@H]21` [DOXYCYCLINE]: the AC50 on Adenosine receptor A2a is above 30 µM; in experiment [1], above 10 µM; in experiment [2] it was above 30 µM; on Cannabinoid receptor 1 it was above 10 µM; in experiment [3], above 10 µM; in [4], above 10 µM. In addition, the AC50 on Histamine H2 receptor is above 10 µM; in [5] it was above 10 µM; at Thromboxane A2 receptor, above 30 µM; at Mu-type opioid receptor, above 30 µM.

Take `CO[C@H]1/C=C/O[C@@]2(C)Oc3c(C)c(O)c4c(O)c(c(/C=N/N5CCN(C)CC5)c(O)c4c3C2=O)NC(=O)/C(C)=C\C=C\[C@H](C)[C@H](O)[C@@H](C)[C@@H](O)[C@@H](C)[C@H](OC(C)=O)[C@@H]1C` [RIFAMPIN]: the AC50 at Adenosine receptor A2a is 13 µM; in experiment [1], above 30 µM; in experiment [2], above 30 µM; at Cannabinoid receptor 1, above 30 µM; in [3], above 30 µM; in [4], above 30 µM. The AC50 at Histamine H2 receptor is above 30 µM; in experiment [5], above 30 µM; on Thromboxane A2 receptor, 17.4 µM; at Mu-type opioid receptor, 8 µM.

As to `CN(C)CCc1c[nH]c2ccc(Cn3cncn3)cc12` [RIZATRIPTAN], the AC50 is above 30 µM on Adenosine receptor A2a; above 30 µM in [1]; above 30 µM in [2]; above 10 µM at Cannabinoid receptor 1; above 30 µM in experiment [3]; above 30 µM in experiment [4]. For the same molecule, the AC50 on Histamine H2 receptor was above 30 µM; in [5], above 30 µM; on Thromboxane A2 receptor, above 30 µM; on Mu-type opioid receptor, above 10 µM.

As for `N[C@@H](CC(=O)N1CCn2c(nnc2C(F)(F)F)C1)Cc1cc(F)c(F)cc1F` [SITAGLIPTIN], the AC50 at Adenosine receptor A2a was above 30 µM; in experiment [1] it was above 30 µM; in [2], above 10 µM; at Cannabinoid receptor 1, above 10 µM; in [3], above 10 µM; in [4], above 10 µM. Further, the AC50 was above 10 µM in experiment [5], above 10 µM at Thromboxane A2 receptor and above 30 µM at Mu-type opioid receptor.

Consider `Nc1ccc(S(=O)(=O)Nc2nccs2)cc1` [SULFATHIAZOLE], for which the AC50 on Adenosine receptor A2a is above 30 µM; in [1] it was above 10 µM; in experiment [2], above 30 µM; on Cannabinoid receptor 1, above 10 µM; in experiment [3], above 10 µM; in [4] it was above 10 µM. Further, the AC50 on Histamine H2 receptor was above 10 µM; in [5] it was above 10 µM; on Thromboxane A2 receptor it was above 30 µM; on Mu-type opioid receptor, above 30 µM.

Regarding `C=CC[C@@H]1/C=C(\C)C[C@H](C)C[C@H](OC)[C@H]2O[C@@](O)(C(=O)C(=O)N3CCCC[C@H]3C(=O)O[C@H](/C(C)=C/[C@@H]3CC[C@@H](O)[C@H](OC)C3)[C@H](C)[C@@H](O)CC1=O)[C@H](C)C[C@@H]2OC` [TACROLIMUS ANHYDROUS], the AC50 on Adenosine receptor A2a was above 30 µM; in [1], 7.2 µM and > 10 µM; in [2] it was above 30 µM; on Cannabinoid receptor 1, above 10 µM; in [3], above 30 µM; in experiment [4] it was above 10 µM. The AC50 was above 10 µM at Histamine H2 receptor, above 10 µM in experiment [5], 15.3 µM at Thromboxane A2 receptor and above 30 µM on Mu-type opioid receptor.

For the molecule `Cc1onc(-c2ccccc2)c1-c1ccc(S(N)(=O)=O)cc1` [VALDECOXIB], the AC50 is above 30 µM at Adenosine receptor A2a; above 30 µM in [6]; above 10 µM in [1]; above 30 µM in experiment [2]; above 10 µM at Cannabinoid receptor 1; above 10 µM in experiment [3]. The AC50 in [4] was above 10 µM; on Histamine H2 receptor, above 10 µM; in experiment [5], above 10 µM; on Thromboxane A2 receptor, above 30 µM; on Mu-type opioid receptor, above 30 µM.
